{
  "source": "patent US9376424B2",
  "about": "“Methods for treating post traumatic stress disorder” (AZEVAN PHARMACEUTICALS, INC., priority 2010, dated 2016)",
  "key": {"[1]": {"tested_on": "adult male Long Evans rats", "test": "Light:Dark Shuttle Box", "assay_type": "in vivo, rat", "description": "Anxiolytic Effect in the Light:Dark Shuttle Box. The light:dark shuttle box is a standard and well characterized assay for anxiolytic effects of a test compound. Rats naturally avoid the light side of the box because it is stressful. Increased time on the light side by the treatment group compared to control reflects an anxiolytic effect (Bourin and Hascoet, 2003). Adult male Long Evans rats were administered AVN251 (0.1-2 mg/kg) by oral gavage 90 min prior to testing in a light: dark shuttle box."}, "[2]": {"molecular_target": "T1, human V1a receptor (Homo sapiens, UniProt P37288)", "T1 construct": "host or cells: CHO cells", "T1 sequence (P37288 whole entry)": "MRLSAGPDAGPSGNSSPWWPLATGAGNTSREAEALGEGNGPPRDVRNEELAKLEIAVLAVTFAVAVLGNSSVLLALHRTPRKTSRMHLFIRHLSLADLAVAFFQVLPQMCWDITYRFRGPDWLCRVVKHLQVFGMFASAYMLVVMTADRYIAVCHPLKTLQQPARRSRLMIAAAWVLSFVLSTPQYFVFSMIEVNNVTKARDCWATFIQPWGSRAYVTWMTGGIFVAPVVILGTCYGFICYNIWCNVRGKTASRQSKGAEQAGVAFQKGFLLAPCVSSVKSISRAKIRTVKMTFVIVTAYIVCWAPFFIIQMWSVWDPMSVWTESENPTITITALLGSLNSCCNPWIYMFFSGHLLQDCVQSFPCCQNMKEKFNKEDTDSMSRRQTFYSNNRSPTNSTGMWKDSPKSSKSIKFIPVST", "test": "Inhibition of phosphatidylinositol turnover (V1a)", "assay_type": "cell-based", "from_the_text": "Inhibition of phosphatidylinositol turnover (V1a). The physiological effects of vasopressin are mediated through specific G-protein coupled receptors. The vasopressin V1a receptor is coupled to the Gq/G11 family of G proteins and mediates phosphatidylinositol turnover. The agonist or antagonist character of the compounds of the invention may be determined by their ability to inhibit vasopressin-mediated turnover of phosphatidylinositol by the procedure described in the following paragraphs.\nCell culture and labeling of cells. Three days prior to the assay, near-confluent cultures of hV1a or hV1b cells were dissociated and seeded in 6-well tissue culture plates, about 100 wells being seeded from each 75 cm^2 flask (equivalent to 12:1 split ratio). Each well contained 1 mL of growth medium with 2 μCi of [^3H]myo-inositol (American Radiolabeled Chemicals, St. Louis, Mo., USA).\nIncubations (V1a and V1b). All assays were in triplicate except for basal and 10 nM AVP (both n=6). AVP ((arginine vasopressin), Peninsula Labs, Belmont, Calif., USA (#8103)) was dissolved in 0.1N acetic acid. Test agents were dissolved in DMSO and diluted in DMSO to 200 times the final test concentration. […] The order of incubations was randomized. Incubations were initiated by removing the prelabeling medium, washing the monolayer once with 1 mL of 0.9% NaCl, and transferring the contents of the assay tubes to corresponding wells. The plates were incubated for 1 hour at 37° C. Incubations were terminated by removing the incubation medium and adding 500 μL of ice cold 5% (w/v) trichloroacetic acid and allowing the wells to stand for 15 min.\nMeasurement of [^3H]inositol phosphates (V1a and V1b). BioRad Poly-Prep Econo-Columns were packed with 0.3 mL of AG 1×−8 100-200 formate form resin. Resin was mixed 1:1 with water and 0.6 mL added to each column. Columns were then washed with 10 mL water. Scintillation vials (20 mL) were placed under each column. For each well, the contents were transferred to a minicolumn, after which the well was washed with 0.5 mL distilled water, which was also added to the minicolumn. The columns were then washed twice with 5 mL of 5 mM myo-inositol to elute free inositol. Aliquots (1 mL) were transferred to 20 mL scintillation vials and 10 mL of Beckman Ready Protein Plus added. After the myo-inositol wash was complete, empty scintillation vials were placed under the columns, and [^3H]inositol phosphates were eluted with three additions of 1 mL 0.5 M ammonium formate containing 0.1 N formic acid. Elution conditions were optimized to recover inositol mono-, bis-, and trisphosphates, without eluting the more metabolically inert tetrakis-, pentakis-, and hexakis-phosphates. To each sample was added 10 mL of a high salt capacity scintillation fluid such as Tru-Count High Salt Capacity or Packard Hionic-Fluor. Inositol lipids were measured by adding 1 mL of 2% sodium dodecyl sulfate (SDS) to each well, allowing the wells to stand for at least 30 min., and transferring the solution to 20 mL scintillation vials, to which 10 mL Beckman Ready Protein Plus scintillation fluid was then added. Samples were counted in a Beckman LS 3801 liquid scintillation counter for 10 min. Total inositol incorporation for each well was calculated as the sum of free inositol, inositol phosphates, and inositol lipids.\nData analysis (V1a and V1b): concentration-inhibition experiments. Concentration-response curves for AVP and concentration-inhibition curves for test agents versus 10 nM AVP were analyzed by nonlinear least-squares curve-fitting to a 4-parameter logistic function. Parameters for basal and maximal inositol phosphates, EC50 or IC50, and Hill coefficient were varied to achieve the best fit. The curve-fitting was weighted under the assumption that the standard deviation was proportional to dpm of radioactivity. Full concentration-response curves for AVP were run in each experiment. […]"}},
  "data": [
    {"smiles": "CN(Cc1cccc(C(F)(F)F)c1)C(=O)[C@@H](CC(=O)N1CCC(N2CCCCC2)CC1)N1C(=O)[C@@H](N2C(=O)OC[C@@H]2c2ccccc2)[C@H]1C=Cc1ccccc1", "note": "[Example 225, 2(R)-[[4-(Piperidinyl)piperidinyl]carbonylmethyl]-2-[3(S)-(4(S)-phenyloxazolidin-2-on-3-yl)-4(R)-(2-styryl)azetidin-2-on-1-yl]acetic acid N-methyl-N-(3-trifluoromethylbenzyl)amide]", "values": [
      {"measurement": "anxiety vs. vehicle", "setting": "[1]; 0.1-2 mg/kg oral gavage 90 min prior to testing", "result": "dose dependent decrease in anxiety"},
      {"measurement": "light-dark entries (FIG. 2C)", "setting": "[1]; 1 or 2 mg/kg oral gavage", "result": "more light-dark entries"},
      {"measurement": "time in the dark (FIG. 2B)", "setting": "[1]; 1 or 2 mg/kg oral gavage", "result": "less time in the dark"},
      {"measurement": "time in the light (FIG. 2A)", "setting": "[1]; 1 or 2 mg/kg oral gavage", "result": "significantly more time in the light"},
      {"measurement": "Ki", "setting": "[2]; Cheng-Prusoff from IC50, hV1a cells, read-out: Ki, suppression of the action of AVP (inositol phosphates)", "result": 0.05, "unit": "nM"},
      {"measurement": "IC50", "setting": "[2]; versus 10 nM AVP, hV1a cells, read-out: IC50, suppression of the action of AVP (inositol phosphates)", "result": 2.68, "unit": "nM"}
    ]}
  ]
}
